Where “and” joins values, the source holds several entries; their conditions need not be identical. Equal entries are not always repeated. Toxic doses and inconclusive results are not listed. Rule as the data show it: active = T/C of 150% or more; inactive = T/C below 125%.
Tested on: L1210 leukemia ip in BDF1 mice, survival T/C
Experiment: NCI In Vivo Anticancer Drug Screen. Data for tumor model L1210 Leukemia (intraperitoneal) in B6D2F1 (BDF1) mice
Settings: endpoint: mean survival time, higher = longer survival
How it was run: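 Ratio derived from survival: compound-dosed mice over vehicle-dosed mice, all bearing a transplantable tumor.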

[1] = dose: 100.0 mg/kg/injection, schedule: Q01DX009 (ip), vehicle: Klucel (hydroxypropylcellulose) (HPC)
[2] = dose: 200.0 mg/kg/injection, schedule: Q01DX009 (ip), vehicle: Klucel (hydroxypropylcellulose) (HPC)
[3] = dose: 400.0 mg/kg/injection, schedule: Q01DX009 (ip), vehicle: Klucel (hydroxypropylcellulose) (HPC)
[4] = dose: 100.0 mg/kg/injection, schedule: Q04DX002 (ip), vehicle: saline with Tween-80
[5] = dose: 100.0 mg/kg/injection, schedule: Q04DX003 (ip), vehicle: saline with Tween-80
[6] = dose: 200.0 mg/kg/injection, schedule: Q01DX009 (ip), vehicle: saline with Tween-80
[7] = dose: 200.0 mg/kg/injection, schedule: Q04DX003 (ip), vehicle: saline with Tween-80
[8] = dose: 400.0 mg/kg/injection, schedule: Q04DX002 (ip), vehicle: saline with Tween-80
[9] = dose: 400.0 mg/kg/injection, schedule: Q04DX003 (ip), vehicle: saline with Tween-80
[10] = dose: 100.0 mg/kg/injection, schedule: Q04DX002 (ip), vehicle: Klucel (hydroxypropylcellulose) (HPC)
[11] = dose: 100.0 mg/kg/injection, schedule: Q01DX001 (ip), vehicle: saline
[12] = dose: 200.0 mg/kg/injection, schedule: Q01DX001 (ip), vehicle: saline
[13] = dose: 400.0 mg/kg/injection, schedule: Q01DX001 (ip), vehicle: saline
[14] = dose: 25.0 mg/kg/injection, schedule: Q04DX002 (ip), vehicle: Klucel (hydroxypropylcellulose) (HPC)
[15] = dose: 50.0 mg/kg/injection, schedule: Q04DX002 (ip), vehicle: Klucel (hydroxypropylcellulose) (HPC)

Measured: T/C

COc1ccc(Cl)cc1NC(=O)c1ccccc1Cl
inactive: [1] 95 % of control | [2] 102 % of control | [3] 101 % of control

Cc1cc(OC(=O)Nc2cccc(Cl)c2C)ccc1[N+](=O)[O-]
inactive: dose: 25.0 mg/kg/injection, schedule: Q01DX009 (ip), vehicle: saline with Tween-80 104 % of control and 111 % of control | dose: 50.0 mg/kg/injection, schedule: Q01DX009 (ip), vehicle: saline with Tween-80 97 % of control and 103 % of control | [4] 100 % of control and 107 % of control | [5] 105 % of control | [6] 89 % of control | dose: 200.0 mg/kg/injection, schedule: Q04DX002 (ip), vehicle: saline with Tween-80 101 % of control and 104 % of control | [7] 100 % of control | [8] 93 % of control

COc1ccc(NC(=O)Nc2ccccc2Cl)c(OC)c1
inactive: [4] 87 % of control | [8] 87 % of control

CC1=C(Cl)C(=N\S(=O)(=O)c2ccccc2)/c2ccccc2/C1=N/S(=O)(=O)c1ccccc1
inactive: dose: 100.0 mg/kg/injection, schedule: Q01DX001 (ip), vehicle: saline sonified 101 % of control | dose: 200.0 mg/kg/injection, schedule: Q01DX001 (ip), vehicle: saline sonified 100 % of control | dose: 400.0 mg/kg/injection, schedule: Q01DX001 (ip), vehicle: saline sonified 102 % of control

CC(C)(C)c1cc(Cc2cc(C(C)(C)C)c(O)c(C(C)(C)C)c2)cc(C(C)(C)C)c1O
inactive: [5] 96 % of control | [7] 98 % of control | [9] 104 % of control

Cc1cc(N(C)C)c(C(C)C)cc1O (tested in a mixture with another compound)
inactive: dose: 3.2 micrograms/kg/injection, schedule: Q01DX009 (ip), vehicle: saline 95 % of control | dose: 6.3 micrograms/kg/injection, schedule: Q01DX009 (ip), vehicle: saline 90 % of control | dose: 12.5 micrograms/kg/injection, schedule: Q01DX009 (ip), vehicle: saline 105 % of control

CC(C)(C)C(=O)C1C(=O)c2ccccc2C1=O
inactive: dose: 0.25 mg/kg/injection, schedule: Q01DX009 (ip), vehicle: Klucel (hydroxypropylcellulose) (HPC) 101 % of control | dose: 0.25 mg/kg/injection, schedule: Q04DX003 (ip), vehicle: Klucel (hydroxypropylcellulose) (HPC) 95 % of control | dose: 0.5 mg/kg/injection, schedule: Q01DX009 (ip), vehicle: Klucel (hydroxypropylcellulose) (HPC) 95 % of control | dose: 0.5 mg/kg/injection, schedule: Q04DX003 (ip), vehicle: Klucel (hydroxypropylcellulose) (HPC) 101 % of control | dose: 1.0 mg/kg/injection, schedule: Q01DX009 (ip), vehicle: Klucel (hydroxypropylcellulose) (HPC) 104 % of control | dose: 1.0 mg/kg/injection, schedule: Q04DX003 (ip), vehicle: Klucel (hydroxypropylcellulose) (HPC) 100 % of control

O=[N+]([O-])c1ccc2c(c1)-c1ccccc1C2Cl (stereo not given)
inactive: dose: 100.0 mg/kg/injection, schedule: Q01DX005 (ip), vehicle: Klucel (hydroxypropylcellulose) (HPC) 94 % of control | [10] 111 % of control | dose: 200.0 mg/kg/injection, schedule: Q01DX005 (ip), vehicle: Klucel (hydroxypropylcellulose) (HPC) 91 % of control | dose: 200.0 mg/kg/injection, schedule: Q04DX002 (ip), vehicle: Klucel (hydroxypropylcellulose) (HPC) 101 % of control | dose: 400.0 mg/kg/injection, schedule: Q01DX005 (ip), vehicle: Klucel (hydroxypropylcellulose) (HPC) 88 % of control | dose: 400.0 mg/kg/injection, schedule: Q04DX002 (ip), vehicle: Klucel (hydroxypropylcellulose) (HPC) 96 % of control

COc1ccc(OCCCCCCCCCCBr)cc1
inactive: dose: 100.0 mg/kg/injection, schedule: Q04DX002 (ip), vehicle: other 101 % of control | dose: 200.0 mg/kg/injection, schedule: Q04DX002 (ip), vehicle: other 96 % of control | dose: 400.0 mg/kg/injection, schedule: Q04DX002 (ip), vehicle: other 93 % of control

C=CCNC(=S)NNC(=S)NNc1ccccc1
inactive: dose: 100.0 mg/kg/injection, schedule: Q01DX009 (ip), vehicle: acetone 98 % of control | [5] 118 % of control | dose: 200.0 mg/kg/injection, schedule: Q01DX009 (ip), vehicle: acetone 90 % of control | [7] 93 % of control | [9] 96 % of control

CN1C2CC(=O)CC1C1CCC2C1
inactive: dose: 15.0 mg/kg/injection, schedule: Q01DX001 (ip), vehicle: carboxymethylcellulose (CMC) 103 % of control | dose: 30.0 mg/kg/injection, schedule: Q01DX001 (ip), vehicle: carboxymethylcellulose (CMC) 101 % of control

NC(=S)Nc1ccc(C23CCC(CC2)CC3)cc1
inactive: dose: 50.0 mg/kg/injection, schedule: Q01DX009 (ip), vehicle: saline 105 % of control | dose: 100.0 mg/kg/injection, schedule: Q01DX009 (ip), vehicle: saline 105 % of control | dose: 200.0 mg/kg/injection, schedule: Q01DX009 (ip), vehicle: saline 102 % of control

CC(C)Nc1nc(N)nc2nc(-c3ccc(Cl)cc3)c(-c3ccc(Cl)cc3)nc12
inactive: [11] 100 % of control | [12] 113 % of control | [13] 107 % of control

CN(CCO)CC1C(c2ccccc2)C1c1ccccc1 (stereo not given)
inactive: dose: 12.5 mg/kg/injection, schedule: Q04DX002 (ip), vehicle: Klucel (hydroxypropylcellulose) (HPC) 97 % of control | [14] 94 % of control | [15] 90 % of control

CC(=O)c1sc2sc(C(C)=O)c(NC(=S)Nc3ccccc3Cl)c2c1NC(=S)Nc1ccccc1Cl
inactive: [1] 97 % of control | [2] 96 % of control | [3] 94 % of control

CCCCCCP(=O)(CCCC)CCCC
inactive: [14] 94 % of control | [15] 109 % of control | [10] 103 % of control and 109 % of control

CCCC(N)C(O)c1ccccc1 (stereo not given)
inactive: dose: 75.0 mg/kg/injection, schedule: Q01DX001 (ip), vehicle: saline 102 % of control | dose: 150.0 mg/kg/injection, schedule: Q01DX001 (ip), vehicle: saline 100 % of control

COc1cccc(NC2=CC(=O)C(=O)c3ccccc32)c1
inactive: dose: 100.0 mg/kg/injection, schedule: Q01DX001 (ip), vehicle: other 88 % of control | dose: 200.0 mg/kg/injection, schedule: Q01DX001 (ip), vehicle: other 92 % of control | dose: 400.0 mg/kg/injection, schedule: Q01DX001 (ip), vehicle: other 101 % of control

NC(CCSC(c1ccccc1)c1ccccc1)C(=O)O (stereo not given)
inactive: [11] 101 % of control | [12] 97 % of control | [13] 97 % of control

Nc1ccccc1C(=O)ONC(=O)c1ccccc1
inactive: dose: 100.0 mg/kg/injection, schedule: Q04DX003 (ip), vehicle: carboxymethylcellulose (CMC) 97 % of control | dose: 200.0 mg/kg/injection, schedule: Q04DX003 (ip), vehicle: carboxymethylcellulose (CMC) 93 % of control | dose: 400.0 mg/kg/injection, schedule: Q04DX003 (ip), vehicle: carboxymethylcellulose (CMC) 92 % of control

O=C(O)CN1C(=O)c2cccc([N+](=O)[O-])c2C1=O
inactive: [1] 100 % of control | [2] 100 % of control | [3] 101 % of control

CN(C)CC1CC2(CC(CN(C)C)C1=O)OCCO2 (stereo not given)
inactive: dose: 9.38 mg/kg/injection, schedule: Q01DX001 (ip), vehicle: other 98 % of control | dose: 18.75 mg/kg/injection, schedule: Q01DX001 (ip), vehicle: other 97 % of control | dose: 37.5 mg/kg/injection, schedule: Q01DX001 (ip), vehicle: other 104 % of control

COc1cccc(NC(=S)NNC(=S)NNc2ccccc2)c1
inactive: [1] 108 % of control | [2] 100 % of control | [3] 100 % of control

Cc1cc(OS(C)(=O)=O)ccc1OS(C)(=O)=O
inactive: dose: 100.0 mg/kg/injection, schedule: Q01DX009 (ip), vehicle: saline with Tween-80 94 % of control | [5] 98 % of control | [6] 94 % of control | [7] 94 % of control | dose: 400.0 mg/kg/injection, schedule: Q01DX009 (ip), vehicle: saline with Tween-80 92 % of control | [9] 98 % of control

Source: PubChem BioAssay AID248 (DTP/NCI, 2004)
